Where two headings read alike, the source gives them in different places.
Key:
[1] = type: in vitro ADME, Human; conditions: extraction ratio, compound at 1 uM, human liver microsomes 0.5 mg/mL
Procedure: (§1) Metabolic stability of novel protease inhibitors was determined via liver microsomal stability assay. Human, mouse, SD rat, beagle dog or monkey liver microsomes were incubated with the test compound for 5 to 60 minutes at 37° C., and then the remaining parent compound was quantified by LC-MS/MS. Percentage of the test compound remaining, half-life (t1/2), in vitro intrinsic clearance (CLint, in vitro), in vivo intrinsic clearance (CLint, in vivo), hepatic clearance (CLh) and extraction ratio (ER) were calculated.
(§2) Procedure: The assay was done as described in Baranczewski, P. et al. (2006) Pharmacological Reports 58:453-472; Pearson, P. and Wienkers, L. (2008) Handbook of Drug Metabolism, 2nd Edition. CRC Pres, P.478; and Venkatesh, P. et al. (2007) Biol. Pharm. Bull. 30:1021-2024. 0.625 mg/mL liver microsomes solution was prepared by mixing 2325 μL 100 mM of K-phosphate buffer (pH 7.4) containing 2.5 mM of MgCl2, 1.25 mM of EDTA, and 75 μL microsomes (20 mg/mL) in a vial for each species.
(§3) Positive control compound: (±) Verapamil hydrochloride (Cat No.: V4629; Lot No.: MKBV4993V; Source: Sigma)
(§4) 40 μL aliquots of the liver microsome/test compound mixture were dispensed into 96-well plate in triplicate and pre-warmed the mixture for 5 minutes at 37° C. Then, 10 μL of 5 mM NADPH solution was added to each well to initiate the reaction, and gently mixed. The samples were incubated at 37° C. with gentle shaking.
(§5) For 0-min samples, 200 μL of ACN containing internal standard was added to 40 μL of liver microsome/test compound mixture, followed by addition of 5 mM NADPH, and mixed gently.
(§6) For negative control: 40 μL of liver microsome/test compound mixture was incubated at 37° C. with gentle shaking for 60 minutes, followed by addition of 200 μL ACN containing 1% FA and internal standard and 10 μL of 5 mM NADPH, mixed gently.
(§7) All samples were centrifuged at 4° C. for 20 minutes at 4,000 rpm. Then, 100 μL of the supernatant from each sample was transferred to a new 96-well plate and 100 μL of ultrapure water containing 1% FA was added to each well, and mixed gently. Samples were analyzed by LC-MS/MS.
(§8) Data Analysis: Peak area ratio (Peak Area of test compound/Peak Area of internal standard) was used to represent the concentration of compound in each sample. The remaining percentage (% Remaining) at appointed time points was calculated versus the concentration of compound at 0 min. The Ln value of the remaining percentage was linearly fitted against the incubation time.
(§9) The half-life and clearance were calculated using the following equations:
(§10) Determined percent of the remaining test compound: % remaining=[area at tx/average areas at t0]×100 (1) % metabolized=[100−% remaining] (2)
(§11) Calculated the half-life (t1/2) using the slope (k) of the log-linear regression from the concentration of remaining parent compound versus time (min) relationship: t1/2 (min)=−ln 2/k. (3)
(§12) Clint, in vitro (mL/min/mg) Clint,in vitro=k/c,(c:Liver microsome concentration in the incubation system) (4)
(§13) Hepatic Clearance (CLh) CLh=Clint,in vivo*Hepatic Blood Flow (mL/min/kg)/(Hepatic Blood Flow (mL/min/kg)+Clint,in vivo) (6)
(§14) Extraction ratio (ER): ER=CLint,in vivo/(Qh+CLint,in vivo)*100,Qh:liver blood flow (7)

[2] = biological target: SARS-CoV-2 M^pro (3CL protease) (Severe acute respiratory syndrome coronavirus 2 (2019-nCoV) (SARS-CoV-2), UniProt P0DTD1); type: biochemical; conditions: read-out: SARS-CoV-2M^pro inhibition IC50
[3] = type: in vitro ADME; conditions: extraction ratio, compound at 1 uM; for Liver Microsomal Stability (ER) SD rat: SD rat liver microsomes 0.5 mg/mL; for Liver Microsomal Stability (ER) Beagle dog: beagle dog liver microsomes 0.5 mg/mL; for Liver Microsomal Stability (ER) Monkey: monkey liver microsomes 0.5 mg/mL; for Liver Microsomal Stability (ER) Mouse: mouse liver microsomes 0.5 mg/mL
Procedure: as §1, §2, §3
as §4, with “shaking. (Final concentrations: compound=1 μM; liver microsomes protein=0.5 mg/mL; MgCl2=2 mM; EDTA=1 mM; ACN=0.1%; DMSO=0.05%).” for “shaking.”
as §5, §6, §7, §8, §9, §10, §11, §12, §13, §14

SARS-CoV-2 = assay: Anti-viral in vitro PRNT assay in Vero E6 cells; type: cell-based; conditions: Vero E6 cells, 1000 pfu, 3 days, plaque reduction; for EC50: read-out: anti-SARS-CoV2 (PRNT) in Vero E6 EC50
[4] = mouse oral PK, female Balb/c, 40 mg/kg single dose; for AUC0-t / Cmax / Tmax / t1/2: plasma
Procedure: Pharmacokinetics of test compounds was evaluated following an oral administration of a single dose (at 40 mg/kg) to female Balb/c mice.
Procedure: Test compounds were administered to Balb/c mice (n=3 per sex per time point) by a single oral gavage. The target dose level for oral administration was 40 mg/kg. Blood samples were collected at pre-dose, and at 0.083, 0.25, 0.50, 1, 2, 4, 6, 8, and 12 hours post-dose. Concentrations of test compound were determined by an LC-MS/MS. Non-compartmental Pharmacokinetic parameters of test compounds were analyzed using Phoenix WinNonlin 8.3.
Animal Dosing: All animals were fasted overnight through approximately 4 hours post-dose. Tap water was provided to mice ad Libitum. The mice were dosed orally at 10.0 ml/kg. The formulation volume of the test compound administered to each animal was calculated based on the body weight measured on the day of dosing.
Sample Collection and Analysis: Approximately 0.20 mL of blood was collected via orbital sinus vein puncture into EDTA-K2 tubes. Plasma samples were harvested by centrifugation and stored at −80° C. until analysis. The analytical method for test compound involved protein precipitation by adding acetonitrile containing 1% FA and internal standard (A-1-a synthesized in house or Tolbutamide purchased from Sigma), and final analysis by LC-MS/MS. A standard curve was prepared using mouse plasma for the test compound. The calibration curve was linear over a concentration range of 1.0 to 1000 ng/mL.
Pharmacokinetic and Statistic Analysis: The reported plasma concentrations of test compounds were used to determine pharmacokinetic parameters, using a non-compartmental model for data analysis (Phoenix WinNonlin 8.3). The common pharmacokinetic parameters were calculated, whenever possible, from the plasma concentration-versus-time data. Nominal doses and sampling times were used, except where deviations were noted. […] BQL after Tmax would not participate in calculation of PK parameters.

[5] = wild type Mpro 17 nM, substrate 40 uM

CC(C)C[C@H](NC(=O)c1cc2ccccc2[nH]1)C(=O)N1C[C@H]2[C@@H]([C@H]1C(=O)N[C@H](C#N)C[C@@H]1CCNC1=O)C2(C)C [Compound G-1-b]
Liver Microsomal Stability (ER) Human [1]: 0.38
IC50 [2, 5]: 377 nM
Liver Microsomal Stability (ER) SD rat [3]: 0.33
Liver Microsomal Stability (ER) Beagle dog [3]: 0.33
Liver Microsomal Stability (ER) Monkey [3]: 0.51
Liver Microsomal Stability (ER) Mouse [3]: 0.16

CC(C)C[C@H](NC(=O)c1cc2ccccc2[nH]1)C(=O)N1C[C@H]2[C@@H]([C@H]1C(=O)N[C@H](C=O)C(C)C)C2(C)C [Compound G-2-a]
Liver Microsomal Stability (ER) Human [1]: 0.54
IC50 [2, 5]: > 2000 nM
Liver Microsomal Stability (ER) SD rat [3]: 0.53
Liver Microsomal Stability (ER) Beagle dog [3]: 0.56
Liver Microsomal Stability (ER) Monkey [3]: 0.48
Liver Microsomal Stability (ER) Mouse [3]: 0.16

CC(C)C[C@H](NC(=O)c1cc2ccccc2[nH]1)C(=O)N1C[C@H]2[C@@H]([C@H]1C(=O)N[C@H](C(=O)CCl)C(C)(C)C)C2(C)C [Compound G-3-c]
IC50 [2, 5]: > 10000 nM

CC1(C)[C@@H]2[C@@H](C(=O)N[C@H](C#N)C[C@@H]3CCNC3=O)N(C(=O)[C@@H](NC(=O)C3CC3)C3CC3)C[C@@H]21 [Compound D-2-c]
IC50 [2]: 69.7 nM

C[C@@H](OC(C)(C)C)[C@H](NC(=O)OCc1ccccc1)C(=O)N[C@@H](CC1CCCCC1)C(=O)N[C@H](C=O)C[C@@H]1CCNC1=O [Compound C-2-b]
EC50 (SARS-CoV-2): 730 nM
Liver Microsomal Stability (ER) Human [1]: 0.66
F % (bioavailability) [4]: 5.0%
AUC0-t [4]: 665.2 ng·h/mL
Cmax [4]: 496 ng/mL
Tmax [4]: 15 min
t1/2 [4]: 0.876 h
Liver Microsomal Stability (ER) SD rat [3]: 0.29
Liver Microsomal Stability (ER) Beagle dog [3]: 0.48
Liver Microsomal Stability (ER) Monkey [3]: 0.43
Liver Microsomal Stability (ER) Mouse [3]: 0.48

C=CC(=O)N[C@H](C[C@@H]1CCNC1=O)NC(=O)[C@H](CC1CCCCC1)NC(=O)OCc1ccccc1 [Compound B-2-e]
anti-SARS-CoV2 (PRNT) in Vero E6 EC50 (μM) (SARS-CoV-2): inactive
Liver Microsomal Stability (ER) Human [1]: 0.73
Liver Microsomal Stability (ER) SD rat [3]: 0.19
Liver Microsomal Stability (ER) Beagle dog [3]: 0.47
Liver Microsomal Stability (ER) Monkey [3]: 0.70
Liver Microsomal Stability (ER) Mouse [3]: 0.43

CC(C)[C@@H](C#N)NC(=O)[C@@H]1[C@@H]2[C@H](CN1C(=O)[C@@H](NC(=O)C(F)(F)F)C1CC1)C2(C)C [Compound F-4-a]
anti-SARS-CoV2 (PRNT) in Vero E6 EC50 (μM) (SARS-CoV-2): inactive
Liver Microsomal Stability (ER) Human [1]: 0.07
Liver Microsomal Stability (ER) SD rat [3]: 0.20
Liver Microsomal Stability (ER) Beagle dog [3]: 0.08
Liver Microsomal Stability (ER) Monkey [3]: 0.07
Liver Microsomal Stability (ER) Mouse [3]: 0.03

C=CC(=O)N[C@H](C[C@@H]1CCNC1=O)NC(=O)[C@@H]1[C@@H]2[C@H](CN1C(=O)[C@@H](NC(=O)C(F)(F)F)C(C)(C)C)C2(C)C [Compound D-1-e]
anti-SARS-CoV2 (PRNT) in Vero E6 EC50 (μM) (SARS-CoV-2): inactive
Liver Microsomal Stability (ER) Human [1]: −0.05
Liver Microsomal Stability (ER) SD rat [3]: 0.04
Liver Microsomal Stability (ER) Beagle dog [3]: −0.04
Liver Microsomal Stability (ER) Monkey [3]: −0.10
Liver Microsomal Stability (ER) Mouse [3]: −0.04

CC(C)(C)[C@H](NC(=O)C(F)(F)F)C(=O)N1C[C@H]2[C@@H]([C@H]1C(=O)N[C@@H](C[C@@H]1CCNC1=O)C(=O)CO)C2(C)C [Compound D-1-c]
EC50 (SARS-CoV-2): 610 nM
Liver Microsomal Stability (ER) Human [1]: 0.04
AUC0-t [4]: 1359 ng·h/mL
Cmax [4]: 410 ng/mL
Tmax [4]: 30 min
t1/2 [4]: 2.9 h
Liver Microsomal Stability (ER) SD rat [3]: 0.04
Liver Microsomal Stability (ER) Beagle dog [3]: −0.06
Liver Microsomal Stability (ER) Mouse [3]: 0.18

COc1cccc2[nH]c(C(=O)N[C@@H](CC(C)C)C(=O)N[C@H](C=O)C[C@@H]3CCNC3=O)cc12 [Compound A-5-a]
EC50 (SARS-CoV-2): 1520 nM
Liver Microsomal Stability (ER) Human [1]: 0.10
Liver Microsomal Stability (ER) SD rat [3]: 0.11
Liver Microsomal Stability (ER) Beagle dog [3]: 0.05
Liver Microsomal Stability (ER) Mouse [3]: 0.19

COc1cccc2[nH]c(C(=O)N[C@@H](CC(C)C)C(=O)N[C@H](C#N)C[C@@H]3CCNC3=O)cc12 [Compound A-5-b]
anti-SARS-CoV2 (PRNT) in Vero E6 EC50 (μM) (SARS-CoV-2): inactive
Liver Microsomal Stability (ER) Human [1]: 0.08
Liver Microsomal Stability (ER) SD rat [3]: 0.22
Liver Microsomal Stability (ER) Beagle dog [3]: 0.12
Liver Microsomal Stability (ER) Monkey [3]: 0.47
Liver Microsomal Stability (ER) Mouse [3]: 0.11

C=CC(=O)N[C@H](C[C@@H]1CCNC1=O)NC(=O)[C@H](CC(C)C)NC(=O)OCc1ccccc1 [Compound B-1-f]
anti-SARS-CoV2 (PRNT) in Vero E6 EC50 (μM) (SARS-CoV-2): inactive
Liver Microsomal Stability (ER) Human [1]: −0.19
Liver Microsomal Stability (ER) SD rat [3]: 0.13
Liver Microsomal Stability (ER) Beagle dog [3]: 0.04
Liver Microsomal Stability (ER) Monkey [3]: 0.04
Liver Microsomal Stability (ER) Mouse [3]: 0.07

CC(C)C[C@H](NC(=O)c1cc2c(F)cccc2[nH]1)C(=O)N[C@H](C=O)C[C@@H]1CCNC1=O [Compound A-3-c]
EC50 (SARS-CoV-2): 310 nM
Liver Microsomal Stability (ER) Human [1]: 0.18
Liver Microsomal Stability (ER) SD rat [3]: 0.14
Liver Microsomal Stability (ER) Beagle dog [3]: −0.02
Liver Microsomal Stability (ER) Mouse [3]: 0.14

C[C@H](NC(=O)[C@@H]1[C@@H]2[C@H](CN1C(=O)[C@@H](NC(=O)C(F)(F)F)C(C)(C)C)C2(C)C)C(=O)CCl [Compound F-1-b]
anti-SARS-CoV2 (PRNT) in Vero E6 EC50 (μM) (SARS-CoV-2): inactive
Liver Microsomal Stability (ER) Human [1]: 0.48
Liver Microsomal Stability (ER) SD rat [3]: 0.53
Liver Microsomal Stability (ER) Beagle dog [3]: 0.46
Liver Microsomal Stability (ER) Monkey [3]: 0.44
Liver Microsomal Stability (ER) Mouse [3]: 0.38

CC(C)C[C@H](NC(=O)C(F)F)C(=O)N1C[C@H]2[C@@H]([C@H]1C(=O)N[C@H](C#N)C[C@@H]1CCNC1=O)C2(C)C [Compound H-1-b]
Liver Microsomal Stability (ER) Human [1]: 0.09
AUC0-t [4]: 304 ng·h/mL
Cmax [4]: 193 ng/mL
Tmax [4]: 30 min
t1/2 [4]: 2.39 h
Liver Microsomal Stability (ER) SD rat [3]: 0.06
Liver Microsomal Stability (ER) Beagle dog [3]: 0.05
Liver Microsomal Stability (ER) Mouse [3]: 0.35

CC(C)(C)[C@H](NC(=O)C(F)F)C(=O)N1C[C@H]2[C@@H]([C@H]1C(=O)N[C@H](C#N)C[C@@H]1CCNC1=O)C2(C)C [Compound D-3-b]
EC50 (SARS-CoV-2): 3570 nM
Liver Microsomal Stability (ER) Human [1]: 0.01
F % (bioavailability) [4]: 20.2%
AUC0-t [4]: 3768 ng·h/mL
Cmax [4]: 1190 ng/mL
Tmax [4]: 60 min
t1/2 [4]: 1.86 h
Liver Microsomal Stability (ER) SD rat [3]: 0.02
Liver Microsomal Stability (ER) Beagle dog [3]: −0.01
Liver Microsomal Stability (ER) Mouse [3]: 0.26

From US11753373B2, “Protease inhibitors as antivirals” (priority 2021, dated 2023)
